Assay: Tooth whitening test
Procedure: Discoloration was induced by immersing 12 hydroxyapatite (HAP) discs in black tea. Subsequently, the four discolored discs were immersed in vials containing each of the nanoemulsion composition of Example 31, a nanoemulsion composition in which oxygen was not captured as a control (control group 1), distilled water as a control (control group 2), and 3% hydrogen peroxide as a control (control group 3), respectively. The lightness values (L values) of the discs were measured on days 0, 2, 4 and 6 using a spectrophotometer. Before each measurement, the discs were completely dried at 55° C. for 1 hour using an oven.

Compound: OO [Control 3, hydrogen peroxide]
- lightness value (L value) of disc (Day 0): 72.9
- lightness value (L value) of disc (Day 2): 84.3
- lightness value (L value) of disc (Day 4): 92.96
- lightness value (L value) of disc (Day 6): 97.48

— patent publication US12201707B2, “Nano-emulsion composition for tooth whitening and method for producing the same” (AMOREPACIFIC CORPORATION, priority 2021, dated 2025)
